Measured values: patent US20150181873A1, “HERBICIDE-RESISTANT SUNFLOWER PLANTS, POLYNUCLEOTIDES ENCODING HERBICIDE=RESISTANT ACETO HYDROXY ACID SYNTHASE LARGE SUBUNIT PROTEINS, AND METHODS OF USE” (NIDERA S.A., priority 2013, published 2015)

Experiments:
Format in all cases: in vivo, Helianthus annuus
Sunflower line S4897 = test: Greenhouse spray injury rating, line S4897; settings: imazapyr 360 gm ai/ha (column 360/240)
Source text: (§1) Sunflower lines S4897, Clearfield® sunflower varieties A, B, C and a conventional non-Clearfield variety were sprayed with three rates of imazamox (Raptor™), 100, 200 and 300 gm ai/ha plus 0.5% Sun It II and two rates of imazapyr (Arsenal™) 160 and 360 gm ai/ha plus 0.5% Sun It II when the plants were at the two to three leaf stage. Ratings were taken at 14 days after application (DAT) for injury. Injury was rated on a scale from 0 to 9 where 0=no injury to 9=dead plant. Twelve plants were sprayed per herbicide/rate treatment. Statistical analysis was conducted with STATGRAPHICS Plus 5.0 by using ANOVA and LSD procedures.
(§2) After plants were sprayed, it was realized that a height difference between S4897 and other sunflower varieties would have impacted the actual herbicide dose that was delivered. The spray boom height had been calibrated against S4897 and since the other varieties were taller and closer to the boom they would have received a greater dose of herbicide. Rates were recalibrated for the other varieties to determine the approximate dose they would have received. Assessments were made as presented in Table 2 since it was not possible to make a direct rate comparison due to the effect of the height. For example injury scores were compare for S4897 treated imazamox rate 100 gm ai/ha to the other varieties treated at 75 gm ai/ha. The treatment dose of 300 gm ai/ha for line S4897 was equivalent to the treatment of 200 gm ai/ha for the other varieties, which […].

[1] = tested on: Conventional non-Clearfield sunflower variety; test: Greenhouse spray injury rating, conventional variety; settings: imazapyr 240 gm ai/ha, scale 0-9
Source text: as §1, §2

[2] = tested on: sunflower hybrid TH11 (A122T); test: Greenhouse imazapir dose response, TH11; settings: 14 DAT
Experimental: (§3) A greenhouse study was conducted to quantify and contrast the imazapir sensivity of the mutants A122T and A205V in different genetic backgrounds at the whole plant level in sunflower. Seeds of the different sunflower lines that were used in this study were obtained under field conditions.
(§4) Seeds were sown in Petri dishes and, after germination, plantlets were transplanted to pots of 10 cm of diameter in a potting media consisting of equal parts of vermiculite, soil and sand. Plants were grown in a greenhouse under natural light conditions supplemented with 400 W sodium halide lamps to provide a 16 hrs daylength. Day/night temperatures were 25 and 20° C., respectively. At the V2 stage 10 plants of each genotype were randomly assigned to each treatment consisting of […] imazapir doses (0, 40, 80, 160, 240, 320, 400 and 480 g ai/ha), and a zero-time biomass determination. Experiment was arranged as a randomized block design with a full factorial (sunflower line×treatment) arrangement of treatments and 10 replications.
(§5) On the day of herbicide application ten plants of each genotype were cut at the cotyledonal node and dried at 60° C. for 48 hrs zero-time for dried weight determination. […] Height was determined as the distance between the cotyledonal node and the apex of each plant. For root biomass determination, each plant was taken from the pot and the potting media was washed out from the roots. Above ground biomass data from each line were converted to biomass accumulation after application by subtracting the appropriate average zero-time biomass from each sample. Dry biomass data were converted to percentages of the untreated control plants within each line to allow direct comparisons between groups.

[3] = tested on: sunflower line GM40 (A122T); test: Greenhouse imazapir dose response, GM40; settings: 14 DAT
Experimental: as §3, §4, §5

Which results are given for `CC(C)C1(C)N=C(c2ncccc2C(=O)O)NC1=O` (stereo not shown) [Imazapyr, imazapyr]?
Injury at 14 DAT (Sunflower line S4897; scale 0-9): 0.8 a; Injury at 14 DAT (Sunflower line S4897; scale 0-9, listed as imazapyr): very little injury; Injury at 14 DAT [1]: 8.2 days; Phytotoxicity Index ([2]; 0.5x (40 g ai/ha)): 0.4; biomass accumulation, % of untreated ([2]; 0.5x (40 g ai/ha)): 96.6%; plant height, % of untreated ([2]; 0.5x (40 g ai/ha)): 100.4%; root dry weight, % of untreated ([2]; 0.5x (40 g ai/ha)): 100%; Phytotoxicity Index ([2]; 1x (80 g ai/ha)): 0.4; biomass accumulation, % of untreated ([2]; 1x (80 g ai/ha)): 93.9%; plant height, % of untreated ([2]; 1x (80 g ai/ha)): 99.9%; root dry weight, % of untreated ([2]; 1x (80 g ai/ha)): 99.0%; Phytotoxicity Index ([2]; 2x (160 g ai/ha)): 0.4; biomass accumulation, % of untreated ([2]; 2x (160 g ai/ha)): 81.6%; plant height, % of untreated ([2]; 2x (160 g ai/ha)): 92.0%; root dry weight, % of untreated ([2]; 2x (160 g ai/ha)): 86.1%; Phytotoxicity Index ([2]; 3x (240 g ai/ha)): 0.5; biomass accumulation, % of untreated ([2]; 3x (240 g ai/ha)): 75.8%; plant height, % of untreated ([2]; 3x (240 g ai/ha)): 90.5%; root dry weight, % of untreated ([2]; 3x (240 g ai/ha)): 81.5%; Phytotoxicity Index ([2]; 4x (320 g ai/ha)): 1.0; biomass accumulation, % of untreated ([2]; 4x (320 g ai/ha)): 75.0%; plant height, % of untreated ([2]; 4x (320 g ai/ha)): 90.8%; root dry weight, % of untreated ([2]; 4x (320 g ai/ha)): 72.6%; Phytotoxicity Index ([2]; 5x (400 g ai/ha)): 2.0; biomass accumulation, % of untreated ([2]; 5x (400 g ai/ha)): 60.1%; plant height, % of untreated ([2]; 5x (400 g ai/ha)): 84.4%; root dry weight, % of untreated ([2]; 5x (400 g ai/ha)): 68.9%; Phytotoxicity Index ([2]; 6x (480 g ai/ha)): 2.5; biomass accumulation, % of untreated ([2]; 6x (480 g ai/ha)): 59.6%; plant height, % of untreated ([2]; 6x (480 g ai/ha)): 84.4%; root dry weight, % of untreated ([2]; 6x (480 g ai/ha)): 45.3%; biomass accumulation, % of untreated ([3]; 0.5x (40 g ai/ha)): 96.5%; plant height, % of untreated ([3]; 0.5x (40 g ai/ha)): 99.6%; root dry weight, % of untreated ([3]; 0.5x (40 g ai/ha)): 100%; biomass accumulation, % of untreated ([3]; 1x (80 g ai/ha)): 94.1%; plant height, % of untreated ([3]; 1x (80 g ai/ha)): 97.4%; root dry weight, % of untreated ([3]; 1x (80 g ai/ha)): 100%; biomass accumulation, % of untreated ([3]; 2x (160 g ai/ha)): 97.6%; plant height, % of untreated ([3]; 2x (160 g ai/ha)): 95.2%; root dry weight, % of untreated ([3]; 2x (160 g ai/ha)): 100%; biomass accumulation, % of untreated ([3]; 3x (240 g ai/ha)): 95.8%; plant height, % of untreated ([3]; 3x (240 g ai/ha)): 93.0%; root dry weight, % of untreated ([3]; 3x (240 g ai/ha)): 92.2%; biomass accumulation, % of untreated ([3]; 4x (320 g ai/ha)): 88.3%; plant height, % of untreated ([3]; 4x (320 g ai/ha)): 93.0%; root dry weight, % of untreated ([3]; 4x (320 g ai/ha)): 96.1%; biomass accumulation, % of untreated ([3]; 5x (400 g ai/ha)): 85.6%; plant height, % of untreated ([3]; 5x (400 g ai/ha)): 93.9%; root dry weight, % of untreated ([3]; 5x (400 g ai/ha)): 84.2%; biomass accumulation, % of untreated ([3]; 6x (480 g ai/ha)): 76.8%; plant height, % of untreated ([3]; 6x (480 g ai/ha)): 84.3%; root dry weight, % of untreated ([3]; 6x (480 g ai/ha)): 74.3%
